The values below come from patent US5258515A, “Aqueous solutions of sodium salts of trimercapto-s-triazine, their preparation and use” (Degussa Aktiengesellschaft, priority 1989, dated 1993).

Series [1] in a line: Titration curve of TMT-H3. It is filed as physicochemical. An excerpt: In the sequence named, the jump are to be associated with the salts TMT-Na, TMT-Na2 and TMT-Na3.
The nature of series [2]: Solubility / saturation concentration of TMT-Na salts and salt mixtures in water. It is filed as physicochemical. To be noted: for solubility in water: temperature not given; for Solubility of the TMT-Na salt/-salt mixture / solubility: water; for solubility: read-out: saturation concentration of TMT-Na3 in water. An excerpt:
That is, in each case, more than 2 hydrogen atoms of the TMT-H3 are replaced.

Assay in series [3]: as above
It counts as physicochemical.

The nature of series [4]: Stability in storage of aqueous solutions (crystallization). It counts as physicochemical. As to conditions: in words. How it is done: Aqueous solutions of TMT-Na3 are commercially available and are used for separating heavy metal from the flue gas wash water of garbage incinerators, waste water in the mining industry and in galvanotechnical and chemical plants. The commercially available, aqueous TMT-NA3 solution has a concentration of 15% by weight (Publication TMT 15 of the Degussa company, 3/1986). The saturation concentration of TMT-Na3 in water is approximately 16% by weight at 0° C. and approximately 25% by weight at 20° C. […] Such a crystallization makes it considerably more difficult to handle the product. If heat-insulated or heated transport and storage containers were used, TMT-Na3 solutions with a higher concentration could be considered as a commercially supplied form of this product; however, this would make the product and its use more expensive.
The object of the present invention is to provide aqueous solutions of sodium salts of trimercapto-s-triazine which have a higher concentration of active substance than current commercially available solutions. Increasing the concentration makes possible a reduction in transportation and storage costs. The solutions should be stable in storage, that is, no crystallization of the active substance or of its salt should occur during storage. […]

For series [5] the following is noted: disclosure of DE-AS 22 40 549; cited from earlier work.

Each structure is given as a SMILES string. Structures can show the parent of a compound that is named as a salt. Where two headings read alike, the source gives them in different places.

For `Sc1nc(S)nc(S)n1` [TMT-H3, Trimercapto-s-triazine], in series [1] (associated with TMT-Na), the “first jump of the titration curve” value is “around 7 pH”. The “second jump of the titration curve” value in series [1] (associated with TMT-Na2) is given as “around 10.5 pH”. In addition, the “third jump of the titration curve” value in series [1] (associated with TMT-Na3) is recorded as “around 12.5 pH”. Moreover, the “solubility in water (in words)” value in series [2] (in words) is given as “practically insoluble in water”. Besides, the solubility in water entry in series [2] is on record as “less than 0.5 % by weight”.
As to `Sc1nc(S)nc(S)n1` [TMT-Na2, disodium salt of trimercapto-s-triazine], the “solubility in water (in words)” value in series [2] (in words) was “unusually high water solubility”. Further, in series [2] (in words, comparison with TMT-Na3), the “solubility relative to that of TMT-Na3” value is “considerably above that of the readily soluble TMT-Na3”.
Take `Sc1nc(S)nc(S)n1` [TMT-Na2.6 H2 0, hexahydrate of trimercapto-s-triazine disodium salt]: the “solubility in water (in words)” value in series [3] (in words, disodium salt) was “extraordinarily high solubility in water”.
As for `Sc1nc(S)nc(S)n1.[Na].[Na].[Na]` [TMT-Na3, trimercapto-s-triazine trisodium salt], in series [2] (0° C.), the “solubility of TMT-Na3” value was “approximately 0.78 mole TMT-Na3 per liter of H2 0”, the “Solubility of the TMT-Na salt/-salt mixture” value was 0.78 mole TMT salt/1 H2 O and the solubility was roughly 160 mg/mL. Further, in series [2] (20° C.), the “solubility of TMT-Na3” value is “approximately 1.37 mole TMT-Na3 per liter of H2 0”, the “Solubility of the TMT-Na salt/-salt mixture” value was determined as 1.37 mole TMT salt/1 H2 O and the solubility is roughly 250 mg/mL. Also, the “solubility in water (in words)” value in series [2] (in words) is reported as “good solubility”. Moreover, the “stability in storage (crystallization)” value in series [4] is given as “crystallizes if the concentration is higher”.
In the case of `Sc1nc(S)nc(S)n1` [TMT-Na, monosodium salt of trimercapto-s-triazine], the precipitation from solution entry in series [3] (less than 2 hydrogen atoms of trimercapto-s-triazine replaced by Na ions) is reported as “precipitates”. Besides, the solubility in water entry in series [5] and in series [2] was “approximately 3 % by weight” in each case. For the same compound, in series [2] (in words), the “solubility in water (in words)” value is “slightly soluble in water”.
